Data as given in PubChem BioAssay (NCI).
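Grown in 96-well plates, cells were treated for 48 hours with each compound at five concentrations. Insufficient inhibition: endpoint recorded as highest concentration tested. At the GI50, growth is halved. TGI marks complete inhibition of growth.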

Key:
Test in all cases: NCI-60 cell line screen, 48 h
[1] = test system: TK-10 renal
[2] = test system: ACHN renal
[3] = test system: A498 renal
[4] = test system: RXF 393 renal
[5] = test system: U251 CNS
[6] = test system: UACC-257 melanoma
[7] = test system: HOP-92 NSCLC
[8] = test system: HCT-15 colon
[9] = test system: MDA-MB-435
[10] = test system: SW-620 colon
[11] = test system: MALME-3M melanoma
[12] = test system: MDA-MB-468 breast
[13] = test system: SK-OV-3 ovarian
[14] = test system: OVCAR-3 ovarian
[15] = test system: MOLT-4 leukemia
[16] = test system: COLO 205 colon
[17] = test system: OVCAR-5 ovarian
[18] = test system: HOP-62 NSCLC
[19] = test system: OVCAR-8 ovarian
[20] = test system: SN12C renal
[21] = test system: PC-3 prostate
[22] = test system: UO-31 renal
[23] = test system: HCT-116 colon
[24] = test system: SNB-75 CNS
[25] = test system: A549 NSCLC
[26] = test system: K-562 leukemia
[27] = test system: SF-539 CNS
[28] = test system: NCI-H522 lung
[29] = test system: HT29 colon
[30] = test system: NCI-H460 lung
[31] = test system: RPMI-8226 leukemia
[32] = test system: IGROV1 ovarian
[33] = test system: NCI/ADR-RES ovarian
[34] = test system: SK-MEL-5 melanoma
[35] = test system: KM12 colon
[36] = test system: SF-268 CNS
[37] = test system: SNB-19 CNS
[38] = test system: MDA-MB-231 breast
[39] = test system: SR leukemia
[40] = test system: 786-0 renal
[41] = test system: HL-60(TB) leukemia
[42] = test system: SF-295 CNS
[43] = test system: HCC-2998 colon
[44] = test system: DU-145 prostate
[45] = test system: NCI-H23 lung
[46] = test system: EKVX NSCLC
[47] = test system: BT-549 breast
[48] = test system: NCI-H226 lung
[49] = test system: M14 melanoma
[50] = test system: CCRF-CEM leukemia
[51] = test system: T-47D breast
[52] = test system: UACC-62 melanoma
[53] = test system: OVCAR-4 ovarian
[54] = test system: SK-MEL-28 melanoma
[55] = test system: MCF7 breast
[56] = test system: HS 578T breast
[57] = test system: CAKI-1 renal
[58] = test system: SK-MEL-2 melanoma

## COc1ccc2c(c1)c(-c1cc(N)n3nc(-c4cn(C)c5ccccc45)cc3n1)cn2C
[1]
  GI50: 1910 nM
  TGI: 3360 nM
[2]
  GI50: 1650 nM
  TGI: 3020 nM
[3]
  GI50: 1760 nM
  TGI: 3270 nM
[4]
  GI50: 1850 nM
  TGI: 3410 nM
[5]
  GI50: 1840 nM
  TGI: 3440 nM
[6]
  GI50: 1770 nM
  TGI: 3260 nM
[7]
  GI50: 1760 nM
  TGI: 3410 nM
[8]
  GI50: 1040 nM
  TGI: 2680 nM
[9]
  GI50: 1760 nM
  TGI: 3210 nM
[10]
  GI50: 1800 nM
  TGI: 3600 nM
[11]
  GI50: 1700 nM
  TGI: 3090 nM
[12]
  GI50: 1670 nM
  TGI: 3310 nM
[13]
  GI50: 1920 nM
  TGI: 3510 nM
[14]
  GI50: 1940 nM
  TGI: 3680 nM
[15]
  GI50: 1690 nM
  TGI: 5410 nM
[16]
  GI50: 1920 nM
  TGI: 3670 nM
[17]
  GI50: 1950 nM
  TGI: 3850 nM
[18]
  GI50: 1730 nM
  TGI: 3350 nM
[19]
  GI50: 1880 nM
  TGI: 3530 nM
[20]
  GI50: 1660 nM
  TGI: 3050 nM
[21]
  GI50: 1800 nM
  TGI: 3690 nM
[22]
  GI50: 1590 nM
  TGI: 2980 nM
[23]
  GI50: 1160 nM
  TGI: 2420 nM
[24]
  GI50: 1430 nM
  TGI: 2800 nM
[25]
  GI50: 1810 nM
  TGI: 3510 nM
[26]
  GI50: 401 nM
  TGI: 4500 nM
[27]
  GI50: 1700 nM
  TGI: 3190 nM
[28]
  GI50: 1650 nM
  TGI: 3150 nM
[29]
  GI50: 1860 nM
  TGI: 3380 nM
[30]
  GI50: 1900 nM
  TGI: 3600 nM
[31]
  GI50: 2080 nM
  TGI: 6070 nM
[32]
  GI50: 1730 nM
  TGI: 3250 nM
[33]
  GI50: 2030 nM
  TGI: 4180 nM
[34]
  GI50: 1810 nM
  TGI: 3230 nM
[35]
  GI50: 2100 nM
  TGI: 4480 nM
[36]
  GI50: 1970 nM
  TGI: 4080 nM
[37]
  GI50: 2180 nM
  TGI: 5000 nM
[38]
  GI50: 1820 nM
  TGI: 3270 nM
[39]
  GI50: 288 nM
  TGI: 1130 nM
[40]
  GI50: 1550 nM
  TGI: 2970 nM
[41]
  GI50: 1400 nM
  TGI: 3940 nM
[42]
  GI50: 1780 nM
  TGI: 3430 nM
[43]
  GI50: 2090 nM
  TGI: 3650 nM
[44]
  GI50: 2050 nM
  TGI: 4010 nM
[45]
  GI50: 1970 nM
  TGI: 4090 nM
[46]
  GI50: 1460 nM
  TGI: 3300 nM
[47]
  GI50: 1870 nM
  TGI: 3570 nM
[48]
  GI50: 2040 nM
  TGI: 4930 nM
[49]
  GI50: 1850 nM
  TGI: 3590 nM
[50]
  GI50: 864 nM
  TGI: 5380 nM
[51]
  GI50: 1940 nM
  TGI: 4150 nM
[52]
  GI50: 1730 nM
  TGI: 3140 nM
[53]
  GI50: 1820 nM
  TGI: 3280 nM
[54]
  GI50: 1800 nM
  TGI: 3320 nM
[55]
  GI50: 934 nM
  TGI: 2520 nM
[56]
  GI50: 2180 nM
  TGI: 4770 nM
[57]
  GI50: 1710 nM
  TGI: 3140 nM
[58]
  GI50: 1700 nM
  TGI: 3230 nM
